“And” between values parts separate entries of the source, which are not always exact repeats. Equal values may be shown once.

The assay addresses T1, 17-beta-hydroxysteroid dehydrogenase type 3 (Homo sapiens, UniProt P37058).
T1 sequence (P37058 whole entry): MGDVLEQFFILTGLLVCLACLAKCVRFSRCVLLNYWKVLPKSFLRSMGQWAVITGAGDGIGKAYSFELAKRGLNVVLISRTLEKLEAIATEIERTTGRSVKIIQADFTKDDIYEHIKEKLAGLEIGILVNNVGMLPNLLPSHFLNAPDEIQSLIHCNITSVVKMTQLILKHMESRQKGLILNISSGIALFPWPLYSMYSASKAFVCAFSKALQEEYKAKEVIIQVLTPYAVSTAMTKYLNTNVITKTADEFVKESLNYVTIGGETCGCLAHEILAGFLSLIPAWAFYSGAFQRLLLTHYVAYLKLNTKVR
As to the kind of experiment: Inhibition Assay. The note with it: pH 7.45; 37 °C. From the text:
Inhibition assay of human testes mcrosomal 17 beta-hydroxysteroid dehydrogenase for the reduction of androstenedione.
Take `COc1ccc(-c2coc3cc(O)cc(O)c3c2=O)cc1` [5,7-dihydroxy-3-(4-methoxyphenyl)-4H-chromen-4-one]: the IC50 was 10.8 µM.
The result for `O=c1cc(-c2ccccc2)oc2ccc(O)cc12` [6-hydroxy-2-phenyl-4H-chromen-4-one] reads 16.4 µM.
The result for `O=C1C=CC(=O)C(c2ccccc2)=C1` [2-phenylcyclohexa-2,5-diene-1,4-dione] reads 5.7 µM; that for `O=c1c(-c2ccc(O)cc2)coc2cc(O)cc(O)c12` [Prunetol], 30.3 µM; that for `O=c1c(O)c(-c2cc(O)c(O)c(O)c2)oc2cc(O)cc(O)c12`, 100 µM.
The result for `Oc1ccc(O)c(-c2ccccc2)c1` [2-Phenylhydroquinone, 7] reads 14.8 µM.
The molecule `C#CCC1(C(=O)OC(=C(c2ccccc2)c2ccccc2)c2ccccc2)CC(=O)NC1=O` (stereo not drawn) [17Beta-HSD Inhibitor, 3] showed an IC50 of 9.15 µM.
With `CCN(CC)CCOc1ccc(/C(=C(\Cl)c2ccccc2)c2ccccc2)cc1` [2-[4-[(Z)-2-chloranyl-1,2-diphenyl-ethenyl]phenoxy]-N,N-diethyl-ethanamine;2-oxidanylpropane-1,2,3-tricarboxylic acid] the figure was 76.2 µM; with `O=c1cc(-c2ccc(O)cc2)oc2cc(O)cc(O)c12` [Naringenin, 18], 21.3 µM and 16.4 µM; with `O=c1c(O)c(-c2ccc(O)c(O)c2)oc2cc(O)ccc12` [2-(3,4-dihydroxyphenyl)-3,7-dihydroxy-chromen-4-one], 32.4 µM.

The values are drawn from BindingDB's records for doi:10.1080/14756360109162353 (Cardiff University, 2001).
